“And” between values parts separate entries of the source, which are not always exact repeats. Identical values can stand only once.
Assays:
[1] = system: Caco-2/TC7 cells; test: Flavonol metabolism and transport experiments on Caco-2/TC7 transwell monolayers, effect of MK571; format: cell-based, human
Experimental: Cells were grown at 37 °C in a humidified incubator with 5% CO2 in Dulbecco Modified Eagle's Medium (DMEM) containing 1% non-essential amino acids, 1% L-glutamine, 100 IU/mL penicillin and 100 μg/mL streptomycin, 1 g/L glucose, and supplemented with 20% (v/v) heat inactivated fetal calf serum. Cells were passaged at 80% confluency, and seeded at 2–4 × 10^4 cells per cm^2 on 10 cm dishes (growing area 75 cm^2) or 12-well transwells (growing area of 1.1 cm^2). […] Toxicity of MK571 on Caco-2/TC7 cell monolayers was determined through comparison of pre- and post-loading TEER values of wells incubated with MK571.
Flavonol stocks (quercetin, kaempferol, galangin; 10 mM) were prepared in dimethylsulfoxide (DMSO) and stored at −20 °C. MK571 was dissolved in dimethyl sulfoxide (10 mM final concentration) and stored at −20 °C. Prior to the metabolism or transport experiments, cells were aspirated of media and washed three times with phosphate buffered saline (PBS). To foetal calf serum and phenol red-free DMEM was added ascorbic acid at a final concentration of 100 μM as well as MK571 at the desired concentration. For metabolism experiments, 10 mL of this media was added to the cells in 10 cm dishes. For transport experiments using transwells, 0.6 mL of this media was added to the apical compartment of the transwell and 1 mL was added to the basolateral compartment. Control wells received an equivalent dose of dimethyl sulfoxide as the treatment wells. Cells were incubated at 37 °C for 30 min, after which flavonols dissolved in dimethyl sulfoxide (kaempferol, galangin or quercetin) were added to the media of treatment wells at a final concentration of 40 or 100 μM, while control wells were treated with the dimethyl sulfoxide vehicle alone. Concentrations of quercetin were increased to 100 μM because instability of quercetin in media necessitated higher initial loading to maintain adequate cellular and media concentrations for uptake and metabolism of the flavonol. Control and treatment cells were incubated at 37 °C for the periods indicated in the results.
Following the required incubation period, media and cell fractions were harvested and analysed to identify and quantify flavonol metabolites using HPLC. Media was removed from the apical (0.5 mL) and basolateral (0.5 mL) compartments of transwells and added to 25 μL trifluoroacetic acid and 25 μL HPLC grade acetonitrile. Media from 10 cm dishes (1 mL) was removed and added to 50 μL trifluoroacetic acid and 25 μL HPLC grade acetonitrile. Cells were washed three times with cold (room temperature) phosphate buffered saline solution and scraped free of the dish surface. For transwells, 100 μL MilliQ water was added to the cells and the resulting cell suspension pipetted into 10 μL trifluoroacetic acid and 10 μL HPLC grade acetonitrile. For 10 cm dishes, the resulting cell suspension was pipetted into 25 μL trifluoroacetic acid and 25 μL HPLC grade acetonitrile. Samples were either analysed immediately or otherwise stored at −20 °C prior to HPLC analysis. Flavonols were stable during frozen storage and thawing (no significant losses up to 26 weeks).
Media samples were thawed where necessary and then mixed using a vortex mixer, centrifuged for 10 min at 14,000 × g using a micro centrifuge, and the supernatant removed and placed in an HPLC vial for analysis. Cell samples were vortex-mixed and then ultra-sonicated (sonic water bath) for 10 min, vortex mixed again and then centrifuged for 10 min at 14,000 × g using a micro-centrifuge, before removal of supernatant for HPLC analysis. Identification and quantification of individual flavonol metabolites was carried out using liquid chromatography–mass spectrometry and nuclear magnetic resonance analyses, as described previously. […]

[2] = system: UDP-β-D-glucuronosyl transferase (UDP-GT) activity in the Caco2 cell-free extracts; test: Enzyme kinetics of kaempferol glucuronidation in Caco2 cell-free extracts (Km, Vmax, Ki); format: biochemical, human; conditions: substrate kaempferol 5–150 μM; estimated from reciprocal plots; read-out: Ki for inhibition of the synthesis of K-4′-O-GlcA
Experimental: Cells were grown until 21 days post confluent and washed and aspirated as described previously. The cells were then scraped into tubes and these tubes kept on ice at all times throughout the preparation procedure. Homogenisation buffer comprised of sodium phosphate buffer (50 mM adjusted to pH 6.5; 20 mL), two mini protease inhibitor cocktail tablets containing EDTA and perfabloc, dithiothreitol (30.8 mg), alamethacin (20 μL of a 22 μg/mL) solution from T. viride; and MgCl2 (3.5 mg). Cell-free homogenates were prepared by mixing cells with homogenisation buffer (50:50, vol/vol) and vortexing with glass beads in an eppendorf tube three times for 1 min over a 10 min period. […] The supernatant was removed and analysed via HPLC.
Estimates of initial rates (v) of formation of flavonol conjugates by UDP-β-D-glucuronosyl transferase (UDP-GT) activity in the Caco2 cell-free extracts were calculated for each concentration of S (S = kaempferol; [S] range 5–150 μM). […] The type of inhibition was determined by plotting 1/v versus 1/S for each of the inhibitor (MK571) concentrations tested and observing the location of the intersection of the lines, which also gave estimated values for Km and Vmax. […]

[3] = system: Caco-2 cells; conditions: cited from earlier work
[4] = system: Caco-2 cell culture model; parameters: method as in PMID 12893842; conditions: 50 μM MK571; ref [39]; cited from earlier work
[5] = system: Bcrp1; parameters: method as in PMID 15749994; conditions: Mrp2 deficient rats; ref [33]; cited from earlier work
[6] = 50 μM MK571, vs vehicle-only control, transwell monolayers
[7] = galangin 40 μM + 50 μM MK571 apical, 60 min
[8] = in the presence of MK571 (Table 1: 50 μM)
[9] = kaempferol 40 μM + 50 μM MK571 apical, 60 min
[10] = kaempferol 40 μM + 100 μM MK571 apical, 60 min
[11] = quercetin 100 μM + 50 μM MK571 apical, 60 min
[12] = 50 μM MK571, Caco-2 cells, ref Walle et al. [28]

## CN(C)C(=O)CCSC(SCCC(=O)O)c1cccc(/C=C/c2ccc3ccc(Cl)cc3n2)c1 (stereo not shown) [MK571]
[1]; 50 μM MK571
  Increase in galangin aglycone concentration of the cellular extract: +180%
  Increase in kaempferol aglycone concentration of the cellular extract: +182%
  Increase in quercetin aglycone concentration of the cellular extract: +119%
  Reduction in production of kaempferol sulphates: 50.8%
  Reduction in production of total kaempferol glucuronides: 52.3%
[1]; 50 μM MK571, vs no MK571, transwell monolayers
  Reduction in apical efflux of kaempferol conjugates: 44% and 43.2%
[1]; [6]
  Reduction in apical efflux of galangin conjugates: 38% and 38.5%
  Reduction in apical efflux of quercetin conjugates: 37.1%
[1]; 100 μM MK571
  Increase in kaempferol aglycone concentration of the cellular extract: +229%
  Reduction in production of kaempferol sulphates: 88.4%
  Reduction in production of total kaempferol glucuronides: 67.2%
[1]; [7]
  Apical galangin conjugates, change vs no MK571: −38.5%
  Apical galangin conjugates, rate: 1.789 nmol/h
  Basolateral galangin conjugates, change vs no MK571: −43.6%
  Basolateral galangin conjugates, rate: 2.279 nmol/h
  Cellular galangin conjugates, change vs no MK571: −28.7%
  Cellular galangin conjugates, rate: 0.004 nmol/h
  Total galangin conjugates, change vs no MK571: −41.4%
  Total galangin conjugates, rate: 4.072 nmol/h
[1]; [8]
  Decrease in galangin glucuronides: 42.8%
  Decrease in galangin sulphates: 37.0%
  Decrease in quercetin glucuronides: 56.5%
  Decrease in quercetin sulphates: 39.6%
[1]; [9]
  Apical kaempferol conjugates, change vs no MK571: −43.2%
  Apical kaempferol conjugates, rate: 1.196 nmol/h
  Basolateral kaempferol conjugates, change vs no MK571: −56.7%
  Basolateral kaempferol conjugates, rate: 1.484 nmol/h
  Cellular kaempferol conjugates, change vs no MK571: −20.0%
  Cellular kaempferol conjugates, rate: 0.004 nmol/h
  Total kaempferol conjugates, change vs no MK571: −51.5%
  Total kaempferol conjugates, rate: 2.684 nmol/h
[1]; [10]
  Apical kaempferol conjugates, change vs no MK571: −81.9%
  Apical kaempferol conjugates, rate: 0.382 nmol/h
  Basolateral kaempferol conjugates, change vs no MK571: −69.0%
  Basolateral kaempferol conjugates, rate: 1.062 nmol/h
  Cellular kaempferol conjugates, change vs no MK571: −24.2%
  Cellular kaempferol conjugates, rate: 0.003 nmol/h
  Total kaempferol conjugates, change vs no MK571: −73.9%
  Total kaempferol conjugates, rate: 1.447 nmol/h
[1]; [11]
  Apical quercetin conjugates, change vs no MK571: −37.1%
  Apical quercetin conjugates, rate: 0.706 nmol/h
  Basolateral quercetin conjugates, change vs no MK571: −56.3%
  Basolateral quercetin conjugates, rate: 1.275 nmol/h
  Cellular quercetin conjugates, change vs no MK571: −2.72%
  Cellular quercetin conjugates, rate: 0.004 nmol/h
  Total quercetin conjugates, change vs no MK571: −50.9%
  Total quercetin conjugates, rate: 1.985 nmol/h
[2]
  Ki: 19.7 µM
[3]; [12]
  Inhibition of chrysin glucuronide efflux: 71%
  Inhibition of chrysin sulphate efflux: 25%
[3]; 50 μM, ref [35]
  Efflux of methylated sulphate conjugates and sulphate conjugates of epigallocatechin: substantially inhibited
[3]; ref [36]
  Inhibition of apical efflux of epicatechin sulphate conjugates: > 50%
[4]
  Apigenin sulfation: not inhibited
  Inhibition of apigenin glucuronidation: 30–40%

## COc1ccc2c3c([nH]c2c1)[C@H](C=C(C)C)N1C(=O)[C@@H]2CCCN2C(=O)[C@@H]1C3 [FTC]
[5]
  Total plasma quercetin and isorhamnetin concentrations: twice that of controls

From article PMC4428793, “MK571 inhibits phase-2 conjugation of flavonols by Caco-2/TC7 cells, but does not specifically inhibit their apical efflux^” (Biochemical Pharmacology, 2015)
